# Laboratory results reported in the supplement of paper PMC10307832.
# Columns and labels:
# Experiment in all cases: relative viability (nuclei count vs DMSO), 5 days (fraction); higher = more cells survive
# [1] = test system: SK-MES-1
# Outline: (§1)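 One day after seeding in 1536-well plates, lung cancer cell lines were dosed by pin tool. Dosing was either single-drug or a fixed anchor-drug dose plus five library-drug doses (not always all listed) in √10 steps. After 5 days, nuclei were stained in one fix-and-stain step and counted on 4× images, and relative viability is the nuclei count of treated wells over that of vehicle wells, given as the median of duplicate plates.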
# [2] = test system: NCI-H2347
# Outline: as §1
# [3] = test system: NCI-H441
# Outline: as §1
# [4] = test system: NCI-H1651
# Outline: as §1
# [5] = test system: NCI-H727
# Outline: as §1
# [6] = test system: NCI-H322M
# Outline: as §1
# [7] = test system: NCI-H3122
# Outline: as §1
# [8] = test system: RERF-LC-KJ
# Outline: as §1
# [9] = test system: NCI-H596
# Outline: as §1
# [10] = test system: PC-14
# Outline: as §1
# [11] = test system: NCI-H520
# Outline: as §1
# [12] = test system: NCI-H1355
# Outline: as §1
# [13] = test system: NCI-H1915
# Outline: as §1
# [14] = test system: NCI-H1755
# Outline: as §1
# [15] = test system: LXF-289
# Outline: as §1
# [16] = test system: NCI-H1792
# Outline: as §1
# [17] = test system: NCI-H460
# Outline: as §1
compound,measurement,setting,value
COc1nc(C)cnc1NS(=O)(=O)c1cccnc1-c1ccc(-c2nnco2)cc1 [Zibotentan] + CC1(C)CCC(c2ccc(Cl)cc2)=C(CN2CCN(c3ccc(C(=O)NS(=O)(=O)c4ccc(N[C@H](CCN5CCOCC5)CSc5ccccc5)c(S(=O)(=O)C(F)(F)F)c4)cc3)CC2)C1 [Navitoclax] (partner 0.5 µM),relative viability,[1]; first compound 0.08 µM,1.32
same,relative viability,[1]; first compound 0.253 µM,1.14
same,relative viability,[1]; first compound 0.8 µM,1.21
same,relative viability,[1]; first compound 2.53 µM,1.29
same,relative viability,[2]; first compound 0.08 µM,0.746
same,relative viability,[2]; first compound 0.253 µM,0.776
same,relative viability,[2]; first compound 0.8 µM,0.741
same,relative viability,[2]; first compound 2.53 µM,0.77
same,relative viability,[3]; first compound 0.08 µM,0.635
same,relative viability,[3]; first compound 0.8 µM,0.794
same,relative viability,[3]; first compound 2.53 µM,0.877
same,relative viability,[4]; first compound 0.08 µM,1.08
same,relative viability,[4]; first compound 0.253 µM,0.875
same,relative viability,[4]; first compound 0.8 µM,1
same,relative viability,[4]; first compound 2.53 µM,1.11
same,relative viability,[5]; first compound 0.08 µM,0.48
same,relative viability,[5]; first compound 0.253 µM,0.396
same,relative viability,[5]; first compound 0.8 µM,0.48
same,relative viability,[5]; first compound 2.53 µM,0.435
same,relative viability,[6]; first compound 0.08 µM,1.12
same,relative viability,[6]; first compound 0.253 µM,1.18
same,relative viability,[6]; first compound 0.8 µM,1.23
same,relative viability,[6]; first compound 2.53 µM,1.3
same,relative viability,[7]; first compound 0.08 µM,1.04
same,relative viability,[7]; first compound 0.253 µM,1.01
same,relative viability,[7]; first compound 0.8 µM,1.04
same,relative viability,[7]; first compound 2.53 µM,1.06
same,relative viability,[8]; first compound 0.08 µM,0.996
same,relative viability,[8]; first compound 0.253 µM,1.2
same,relative viability,[8]; first compound 0.8 µM,0.887
same,relative viability,[8]; first compound 2.53 µM,0.976
same,relative viability,[9]; first compound 0.08 µM,1.19
same,relative viability,[9]; first compound 0.253 µM,0.896
same,relative viability,[9]; first compound 0.8 µM,0.958
same,relative viability,[9]; first compound 2.53 µM,1.05
same,relative viability,[10]; first compound 0.08 µM,1.01
same,relative viability,[10]; first compound 0.253 µM,0.983
same,relative viability,[10]; first compound 0.8 µM,0.987
same,relative viability,[10]; first compound 2.53 µM,1.03
same,relative viability,[11]; first compound 0.08 µM,1.13
same,relative viability,[11]; first compound 0.253 µM,0.93
same,relative viability,[11]; first compound 0.8 µM,0.996
same,relative viability,[11]; first compound 2.53 µM,1.37
same,relative viability,[12]; first compound 0.08 µM,0.991
same,relative viability,[12]; first compound 0.253 µM,0.968
same,relative viability,[12]; first compound 0.8 µM,0.928
same,relative viability,[12]; first compound 2.53 µM,1.1
same,relative viability,[13]; first compound 0.08 µM,0.732
same,relative viability,[13]; first compound 0.253 µM,0.79
same,relative viability,[13]; first compound 0.8 µM,0.805
same,relative viability,[13]; first compound 2.53 µM,0.797
same,relative viability,[14]; first compound 0.08 µM,1.01
same,relative viability,[14]; first compound 0.253 µM,0.99
same,relative viability,[14]; first compound 0.8 µM,1
same,relative viability,[14]; first compound 2.53 µM,1.02
same,relative viability,[15]; first compound 0.08 µM,0.96
same,relative viability,[15]; first compound 0.253 µM,0.945
same,relative viability,[15]; first compound 0.8 µM,0.938
same,relative viability,[15]; first compound 2.53 µM,0.968
same,relative viability,[16]; first compound 0.08 µM,0.597
same,relative viability,[16]; first compound 0.253 µM,0.605
same,relative viability,[16]; first compound 0.8 µM,0.588
same,relative viability,[16]; first compound 2.53 µM,0.604
same,relative viability,[17]; first compound 0.08 µM,1.41
same,relative viability,[17]; first compound 0.8 µM,1.14
same,relative viability,[17]; first compound 2.53 µM,1.23
O=c1cc(N2CCOCC2)oc2c(-c3cccc4c3sc3ccccc34)cccc12 + CC1(C)CCC(c2ccc(Cl)cc2)=C(CN2CCN(c3ccc(C(=O)NS(=O)(=O)c4ccc(N[C@H](CCN5CCOCC5)CSc5ccccc5)c(S(=O)(=O)C(F)(F)F)c4)cc3)CC2)C1 [Navitoclax] (partner 0.5 µM),relative viability,[1]; first compound 0.01 µM,1.28
same,relative viability,[1]; first compound 0.03162 µM,1.26
same,relative viability,[1]; first compound 0.1 µM,1.43
same,relative viability,[1]; first compound 0.3162 µM,1.26
same,relative viability,[1]; first compound 1 µM,1.13
same,relative viability,[2]; first compound 0.01 µM,1.11
same,relative viability,[2]; first compound 0.03162 µM,0.804
same,relative viability,[2]; first compound 0.1 µM,0.844
same,relative viability,[2]; first compound 0.3162 µM,0.754
same,relative viability,[2]; first compound 1 µM,0.897
same,relative viability,[3]; first compound 0.01 µM,0.53
same,relative viability,[3]; first compound 0.03162 µM,0.787
same,relative viability,[3]; first compound 0.1 µM,1.59
same,relative viability,[3]; first compound 0.3162 µM,0.738
same,relative viability,[3]; first compound 1 µM,0.585
same,relative viability,[4]; first compound 0.01 µM,1.07
same,relative viability,[4]; first compound 0.03162 µM,0.997
same,relative viability,[4]; first compound 0.1 µM,1.01
same,relative viability,[4]; first compound 0.3162 µM,0.991
same,relative viability,[4]; first compound 1 µM,0.927
same,relative viability,[5]; first compound 0.01 µM,0.47
same,relative viability,[5]; first compound 0.03162 µM,0.512
same,relative viability,[5]; first compound 0.1 µM,0.39
same,relative viability,[5]; first compound 0.3162 µM,0.398
same,relative viability,[5]; first compound 1 µM,0.438
same,relative viability,[6]; first compound 0.01 µM,1.34
same,relative viability,[6]; first compound 0.03162 µM,1.17
same,relative viability,[6]; first compound 0.3162 µM,1.19
same,relative viability,[6]; first compound 1 µM,1.12
same,relative viability,[7]; first compound 0.01 µM,1.02
same,relative viability,[7]; first compound 0.03162 µM,0.981
same,relative viability,[7]; first compound 0.1 µM,1.02
same,relative viability,[7]; first compound 0.3162 µM,0.966
same,relative viability,[7]; first compound 1 µM,0.985
same,relative viability,[8]; first compound 0.01 µM,0.926
same,relative viability,[8]; first compound 0.03162 µM,1.2
same,relative viability,[8]; first compound 0.1 µM,0.98
same,relative viability,[8]; first compound 0.3162 µM,0.85
same,relative viability,[8]; first compound 1 µM,0.974
same,relative viability,[9]; first compound 0.01 µM,0.928
same,relative viability,[9]; first compound 0.03162 µM,0.945
same,relative viability,[9]; first compound 0.1 µM,0.841
same,relative viability,[9]; first compound 0.3162 µM,0.967
same,relative viability,[9]; first compound 1 µM,1.17
same,relative viability,[10]; first compound 0.01 µM,1.09
same,relative viability,[10]; first compound 0.03162 µM,0.95
same,relative viability,[10]; first compound 0.1 µM,1.08
same,relative viability,[10]; first compound 0.3162 µM,1.07
same,relative viability,[10]; first compound 1 µM,1.03
same,relative viability,[11]; first compound 0.01 µM,1.11
same,relative viability,[11]; first compound 0.03162 µM,1.14
same,relative viability,[11]; first compound 0.1 µM,1.18
same,relative viability,[11]; first compound 0.3162 µM,1.05
same,relative viability,[11]; first compound 1 µM,1.22
same,relative viability,[12]; first compound 0.01 µM,0.956
same,relative viability,[12]; first compound 0.03162 µM,0.981
same,relative viability,[12]; first compound 0.3162 µM,0.941
same,relative viability,[12]; first compound 1 µM,0.891
same,relative viability,[13]; first compound 0.01 µM,0.792
same,relative viability,[13]; first compound 0.03162 µM,0.788
same,relative viability,[13]; first compound 0.1 µM,0.809
same,relative viability,[13]; first compound 0.3162 µM,0.779
same,relative viability,[13]; first compound 1 µM,0.824
same,relative viability,[14]; first compound 0.01 µM,0.983
same,relative viability,[14]; first compound 0.03162 µM,0.949
same,relative viability,[14]; first compound 0.1 µM,1.02
same,relative viability,[14]; first compound 0.3162 µM,0.972
same,relative viability,[14]; first compound 1 µM,0.999
same,relative viability,[15]; first compound 0.01 µM,0.924
same,relative viability,[15]; first compound 0.03162 µM,0.937
same,relative viability,[15]; first compound 0.1 µM,0.938
same,relative viability,[15]; first compound 0.3162 µM,0.865
same,relative viability,[15]; first compound 1 µM,0.916
same,relative viability,[16]; first compound 0.01 µM,0.604
same,relative viability,[16]; first compound 0.03162 µM,0.595
same,relative viability,[16]; first compound 0.1 µM,0.368
same,relative viability,[16]; first compound 0.3162 µM,0.564
same,relative viability,[16]; first compound 1 µM,0.556
same,relative viability,[17]; first compound 0.01 µM,1.06
same,relative viability,[17]; first compound 0.03162 µM,1.07
same,relative viability,[17]; first compound 0.1 µM,1.28
same,relative viability,[17]; first compound 0.3162 µM,1.04
same,relative viability,[17]; first compound 1 µM,1.12
